In patent publication US20130202733A1, “ISOMALTULOSE FOR USE IN ENHANCING MENTAL PERFORMANCE” (SUEDZUCKER AKTIENGESELLSCHAFT MANNHEIM/OCHSENFURT, priority 2010, published 2013):
“Also recorded” adds a separate entry of the source.

Legend:
[1] = glucose standard = 100; cited from earlier work
healthy school children [2] = test: Episodic memory test (Recall of Objects, British Ability Scales) after isomaltulose or glucose sweetened meal; format: in vivo, human
Experimental: (§1) Seventy-five healthy school children consumed in crossover design two meals designed to differ in their glycemic load (GL; Amount of carbohydrate×Glycemic Index, GI, of food items; GI of isomaltulose=32, GI of glucose=100) while being similar in macro-nutrient content. The cognitive test block takes 45 minutes and was once assessed in the early postprandial phase and once in the late post-prandial phase (>150 minutes) after meal ingestion. Every child participated in four blocks of testing (FIG. 2). • Early test block after meal A • Late test block after meal A • Early test block after meal B • Late test block after meal B
(§2) On each cognitive test block parallel versions of the cognitive tests were administered.
(§3) Both meals offered a similar intake of energy (1385 KJ) and macro-nutrients (84.4% carbohydrates, 10.6% protein and 5.0% fat) while differing in glycemic load (GL; Amount of carbohydrate×Glycemic Index of food items), that is whether glucose was released slowly or i quickly into the blood stream. The meals were composed as followed (% of total energy): • High GL meal: Cornflakes+milk (35.3%), yoghurt+fruit preparation (14.2%), glucose (50.5%). • Low GL meal: Cornflakes+milk (35.3%), yoghurt+fruit preparation (14.2%), isomaltulose (50.5%).
The approach was based on the Recall of Objects test of the British Ability Scales (Elliott, British Ability Scales, 1996, National foundation of Educational Research) and children had to recall up to 60 objects.

healthy school children [3] = test: Attention test (paradigm of Shakow, signal detection, error rate) after isomaltulose or glucose sweetened meal; format: in vivo, human
Experimental: as §1, §2, §3
The paradigm of Shakow was used to assess attention with error rate as outcome (Shakow, Arch general Psychiat, 1962, 6, 1-17). […]

[4] = after ingestion of 50 g; cited from earlier work
subjects = details: at 150 minutes following ingestion; cited from earlier work
healthy adults = details: milk-based drink; cited from earlier work

OC[C@H]1O[C@@](CO)(O[C@H]2O[C@H](CO)[C@@H](O)[C@H](O)[C@H]2O)[C@@H](O)[C@@H]1O [sucrose, reference compound]
glycemic index (GI) [1]: 65

OC[C@H]1O[C@H](OC[C@H]2OC(O)(CO)[C@@H](O)[C@@H]2O)[C@H](O)[C@@H](O)[C@@H]1O (some centres unmarked) [isomaltulose]
episodic memory, isomaltulose meal versus glucose meal (healthy school children [2]; early postprandial phase (early cognitive test block)): did not differ
episodic memory, isomaltulose meal versus glucose meal (healthy school children [2]; late postprandial phase, >150 minutes after meal consumption): significantly better episodic memories
episodic memory, late postprandial phase compared to early postprandial phase (healthy school children [2]; within the same meal): not significantly different
attention error rate, isomaltulose meal versus glucose meal (healthy school children [3]; early postprandial phase): nearly the same attention error rate; also recorded: nearly the same error rates
attention performance (error rate), isomaltulose meal versus glucose meal (healthy school children [3]; late postprandial phase, >150 minutes after meal ingestion): performed better by tendency; also recorded: trend for better attention performance
glycemic index (GI) [1]: 32
blood glucose or glycemic response curve versus sucrose [4]: much lower
time after ingestion at which blood glucose approximates the initial levels [4]: about 2.5 hours
cognitive performance tests versus sucrose-containing drinks (subjects): performed significantly better
effect on cognitive performance (healthy adults): does not affect cognitive performance
